From ChEMBL document CHEMBL1201862, “PubChem BioAssay data set” (2004)
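Results reflect a 48-hour exposure of cells in 96-well plates to compound at five concentrations. GI50 = concentration required for 50% inhibition of growth.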 Activity calls are given as the source filed them. No stated cut-off is given here; in the data, active = GI50 up to about 1.1 µM and inactive = higher.

How the values were obtained:
Test in all cases: growth of human tumour cells (NCI), 48 h
[1] = system: HOP-18
[2] = system: LXFL 529
[3] = system: XF498
[4] = system: M19-MEL
[5] = system: DLD-1
[6] = system: SNB-78
[7] = system: KM-20L2
[8] = system: RXF 631
[9] = system: DMS-273

## COc1ccc2c(c1)[n+]([O-])c(/C(C)=N/NC(=O)c1ccccc1O)c(C)[n+]2[O-]
[1]
  GI50: > 100 µM (inactive)
[2]
  GI50: > 100 µM (inactive)
[3]
  GI50: 81.5 µM (inactive)
[4]
  GI50: > 100 µM (inactive)
[5]
  GI50: > 100 µM (inactive)
[6]
  GI50: > 100 µM (inactive)
[7]
  GI50: > 100 µM (inactive)
[8]
  GI50: > 100 µM (inactive)

## O=C(c1ccccc1)c1nc2ccc(Cl)cc2c2c1Cc1ccccc1-2
[1]
  GI50: > 100 µM (inactive)
[2]
  GI50: > 100 µM (inactive)
[3]
  GI50: > 100 µM (inactive)
[9]
  GI50: > 100 µM (inactive)
[4]
  GI50: > 100 µM (inactive)
[5]
  GI50: > 100 µM (inactive)
[7]
  GI50: > 100 µM (inactive)

## C=C1C(=O)OC2C/C(C)=C/CC/C(C)=C/CCC3(COC(C)=O)OC3CC12 (configuration not stated)
[1]
  GI50: 11.2 µM (inactive)
[2]
  GI50: 2.77 µM (inactive)
[3]
  GI50: 7.11 µM (inactive)
[9]
  GI50: 3.87 µM (inactive)
[4]
  GI50: 13.1 µM (inactive)
[5]
  GI50: 3.81 µM (inactive)
[6]
  GI50: 7.71 µM (inactive)
[7]
  GI50: 6.93 µM (inactive)

## Cc1cc(Cl)ccc1NC(=O)CCCC(=O)C1C/C(=N/O)CC/C1=N\O (configuration not stated)
[1]
  GI50: > 100 µM (inactive)
[2]
  GI50: > 100 µM (inactive)
[3]
  GI50: > 100 µM (inactive)
[9]
  GI50: > 100 µM (inactive)
[4]
  GI50: > 100 µM (inactive)
[5]
  GI50: > 100 µM (inactive)
[6]
  GI50: > 100 µM (inactive)
[7]
  GI50: > 100 µM (inactive)
[8]
  GI50: > 100 µM (inactive)

## C#CC(C)(C)Oc1cc(O)c2c(=O)c3ccccc3n(C)c2c1
[1]
  GI50: > 100 µM (inactive)
[2]
  GI50: > 100 µM (inactive)
[3]
  GI50: > 100 µM (inactive)
[9]
  GI50: 23.1 µM (inactive)
[6]
  GI50: > 100 µM (inactive)
[7]
  GI50: > 100 µM (inactive)
[8]
  GI50: > 100 µM (inactive)

## O=C(NCCCCCCCCCCCCNC(=O)c1cccc2ccccc12)c1cccc2ccccc12
[1]
  GI50: > 61.1 µM (inactive)
[2]
  GI50: > 91.4 µM (inactive)
[3]
  GI50: > 47.8 µM (inactive)
[9]
  GI50: > 100 µM (inactive)
[4]
  GI50: > 100 µM (inactive)
[5]
  GI50: 51.4 µM (inactive)
[6]
  GI50: > 47 µM (inactive)
[7]
  GI50: > 100 µM (inactive)
[8]
  GI50: 31.2 µM (inactive)

## N#Cc1cccc2c1Nc1ccccc1S2
[1]
  GI50: 37.3 µM (inactive)
[3]
  GI50: 41.8 µM (inactive)
[9]
  GI50: > 100 µM (inactive)
[4]
  GI50: > 100 µM (inactive)
[5]
  GI50: > 100 µM (inactive)
[6]
  GI50: 67.9 µM (inactive)
[7]
  GI50: > 100 µM (inactive)

## COC(=O)C(=C/c1ccc(OC)cc1)/C(C(=O)O)=C(/C)c1ccccc1
[1]
  GI50: > 100 µM (inactive)
[2]
  GI50: > 100 µM (inactive)
[3]
  GI50: > 100 µM (inactive)
[9]
  GI50: > 100 µM (inactive)
[4]
  GI50: > 100 µM (inactive)
[5]
  GI50: > 100 µM (inactive)
[6]
  GI50: > 100 µM (inactive)
[7]
  GI50: > 100 µM (inactive)

## Cc1ccc(S(=O)(=O)NC(=O)C#CCOC2CCCCO2)cc1 (configuration not stated)
[1]
  GI50: > 100 µM (inactive)
[2]
  GI50: > 100 µM (inactive)
[3]
  GI50: > 100 µM (inactive)
[9]
  GI50: > 100 µM (inactive)
[4]
  GI50: > 100 µM (inactive)
[5]
  GI50: > 100 µM (inactive)
[7]
  GI50: > 100 µM (inactive)
[8]
  GI50: > 100 µM (inactive)

## COc1ccc2nc3cc(Cl)ccc3c(NCCC[N+](C)(C)CCCCCCCCCCCCCCCC[N+](C)(C)CCCNc3c4ccc(Cl)cc4nc4ccc(OC)cc34)c2c1
[1]
  GI50: 2.42 µM (inactive)
[2]
  GI50: 1.79 µM (inactive)
[9]
  GI50: 1.77 µM (inactive)
[4]
  GI50: 1.97 µM (inactive)
[5]
  GI50: 3.11 µM (inactive)
[7]
  GI50: 3.3 µM (inactive)
[8]
  GI50: 7.14 µM (inactive)

## O=C(Nc1ccccc1C(=O)NC(=O)c1ccccc1NC(=O)c1ccccc1)c1ccccc1
[1]
  GI50: 4.49 µM (inactive)
[3]
  GI50: 1.69 µM (inactive)
[9]
  GI50: 2.29 µM (inactive)
[5]
  GI50: 12.5 µM (inactive)
[7]
  GI50: 3.15 µM (inactive)

## COc1ccccc1NC(=O)NS(=O)(=O)c1ccccc1
[1]
  GI50: 48.2 µM (inactive)
[2]
  GI50: > 100 µM (inactive)
[9]
  GI50: > 100 µM (inactive)
[4]
  GI50: > 100 µM (inactive)
[5]
  GI50: > 100 µM (inactive)
[6]
  GI50: > 100 µM (inactive)
[7]
  GI50: > 100 µM (inactive)

## CC(C)N(C(=O)C12C3C4C1C1C2C3C41C(=O)C(C)(C)C)C(C)C (configuration not stated)
[2]
  GI50: > 100 µM (inactive)
[3]
  GI50: > 100 µM (inactive)
[9]
  GI50: > 100 µM (inactive)
[4]
  GI50: > 100 µM (inactive)
[5]
  GI50: > 100 µM (inactive)
[6]
  GI50: > 100 µM (inactive)
[7]
  GI50: > 100 µM (inactive)

## CC1=C(C(=O)NCc2ccccc2)C(/C=C/c2ccccc2)C(C(=O)NCc2ccccc2)=C(C)N1
[1]
  GI50: > 100 µM (inactive)
[2]
  GI50: > 100 µM (inactive)
[3]
  GI50: > 100 µM (inactive)
[9]
  GI50: > 100 µM (inactive)
[4]
  GI50: > 100 µM (inactive)
[5]
  GI50: > 100 µM (inactive)
[6]
  GI50: > 100 µM (inactive)
[7]
  GI50: > 100 µM (inactive)

## O=[N+]([O-])c1ccc(N=P(c2ccccc2)(c2ccccc2)c2ccccc2)n2nnnc12
[1]
  GI50: > 100 µM (inactive)
[2]
  GI50: 48.3 µM (inactive)
[3]
  GI50: 32.7 µM (inactive)
[9]
  GI50: > 100 µM (inactive)
[4]
  GI50: 82 µM (inactive)
[7]
  GI50: > 100 µM (inactive)

## Cc1cccc(C)c1NC(=O)C(=O)Nn1c(NN)nc2ccccc2c1=O
[1]
  GI50: > 100 µM (inactive)
[2]
  GI50: > 100 µM (inactive)
[9]
  GI50: > 100 µM (inactive)
[4]
  GI50: > 100 µM (inactive)
[6]
  GI50: > 100 µM (inactive)
[7]
  GI50: > 100 µM (inactive)
[8]
  GI50: > 100 µM (inactive)

## CCCCOC(=O)NC(=O)c1cn(CCCOC(=O)CCCCCCCCC(=O)OCCCn2cc(C(=O)NC(=O)OCCCC)c(=O)[nH]c2=O)c(=O)[nH]c1=O
[1]
  GI50: 24.9 µM (inactive)
[2]
  GI50: > 100 µM (inactive)
[3]
  GI50: > 100 µM (inactive)
[4]
  GI50: > 100 µM (inactive)
[5]
  GI50: > 100 µM (inactive)
[7]
  GI50: > 100 µM (inactive)
[8]
  GI50: 98.6 µM (inactive)

## COc1cccc2c1C(=O)c1c(O)c3c(c(O)c1C2=O)C[C@@](O)(C(=O)CO)CC3OC1CC(O)C(O)C(C)O1 (some centres not stated)
[1]
  GI50: 0.277 µM (active)
[2]
  GI50: 0.461 µM (active)
[3]
  GI50: 0.102 µM (active)
[9]
  GI50: 0.033 µM (active)
[4]
  GI50: 0.218 µM (active)
[5]
  GI50: 0.385 µM (active)
[6]
  GI50: 1.28 µM (inactive)
[7]
  GI50: 0.592 µM (active)
[8]
  GI50: 0.188 µM (active)

## Cc1ccccc1-n1c(CCl)nc2ccc(Br)cc2c1=O
[1]
  GI50: 22.9 µM (inactive)
[2]
  GI50: 0.887 µM (active)
[9]
  GI50: 26 µM (inactive)
[4]
  GI50: 6.15 µM (inactive)
[5]
  GI50: 3.82 µM (inactive)
[6]
  GI50: 18.2 µM (inactive)
[7]
  GI50: 17.8 µM (inactive)
[8]
  GI50: 16.9 µM (inactive)

## COc1cccc2c1C(=O)c1c(O)c3c(c(O)c1C2=O)C[C@@](O)(/C(C)=N\O)C[C@@H]3OC1CC(N)C(O)C(C)O1 (some centres not stated)
[1]
  GI50: 2.18 µM (inactive)
[2]
  GI50: 0.508 µM (active)
[3]
  GI50: 0.21 µM (active)
[9]
  GI50: 0.454 µM (active)
[4]
  GI50: 0.743 µM (active)
[5]
  GI50: 1.95 µM (inactive)
[6]
  GI50: 1.28 µM (inactive)
[7]
  GI50: 3 µM (inactive)
[8]
  GI50: 2.24 µM (inactive)

## O=C1C2C3C=C4c5ccccc5N(c5ccccc5)C4([C@@H]2C(=O)N1c1ccc(F)cc1)[C@H]1C(=O)N(c2ccc(F)cc2)C(=O)[C@@H]31 (some centres not stated)
[1]
  GI50: > 100 µM (inactive)
[3]
  GI50: > 100 µM (inactive)
[4]
  GI50: > 100 µM (inactive)
[5]
  GI50: > 100 µM (inactive)
[6]
  GI50: 82.2 µM (inactive)

## C=C1CC2OC(=O)C(=C)C2C(O)C2C(=C)CCC12 (configuration not stated)
[1]
  GI50: 15.9 µM (inactive)
[2]
  GI50: 4.33 µM (inactive)
[9]
  GI50: 8.2 µM (inactive)
[4]
  GI50: 5.19 µM (inactive)
[5]
  GI50: 10.1 µM (inactive)
[6]
  GI50: 6.56 µM (inactive)
